Laboratory results published in ChEMBL document CHEMBL1201862, “PubChem BioAssay data set” (2004).
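96-well plates; 48 h exposure; 5 concentrations. Endpoints by linear interpolation between flanking doses. Not reached: highest tested concentration assigned. The concentration for 50% growth inhibition is given as GI50.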 Activity calls are given as the source filed them. No stated cut-off is given here; in the data, active = GI50 up to about 1.1 µM and inactive = higher.

Experiments:
Test in all cases: DTP human tumour cell line panel, 48 h
[1] = system: 786-0
[2] = system: A498
[3] = system: CAKI-1
[4] = system: COLO 205
[5] = system: DMS-273
[6] = system: HCT-116
[7] = system: HCT-15
[8] = system: HT-29
[9] = system: KM-20L2
[10] = system: OVCAR-8
[11] = system: SF-295
[12] = system: SK-MEL-2
[13] = system: SN12C
[14] = system: SNB-19
[15] = system: UO-31
[16] = system: DMS-114
[17] = system: DU-145
[18] = system: MDA-MB-435

Measured: GI50

CN(C)C1(C#N)CCC2(CC1)OCCO2
inactive: [1] > 100 µM | [2] > 100 µM | [3] > 100 µM | [4] > 100 µM | [5] > 100 µM | [6] > 100 µM | [8] > 100 µM | [9] > 100 µM | [10] > 100 µM | [11] > 100 µM | [12] > 100 µM | [13] > 100 µM | [14] > 100 µM | [15] > 100 µM
> 100 µM: [7]

O=C(NC1CCC[C@H]1OC(=O)c1ccccc1)c1ccccc1 (some centres undefined)
inactive: [1] > 100 µM | [2] 33.1 µM | [3] 85.7 µM | [16] > 10 µM | [5] 95.7 µM | [6] 81.3 µM | [8] 39.7 µM | [9] > 10 µM | [10] > 100 µM | [11] > 100 µM | [12] > 100 µM | [13] 66.4 µM | [14] > 100 µM | [15] 16.1 µM

CC/C(Cl)=N\OC(=O)Nc1ccc(F)c([N+](=O)[O-])c1
inactive: [1] 6.64 µM | [2] 19.9 µM | [3] 2.85 µM | [4] 2.78 µM | [17] 19.5 µM | [6] 7 µM | [8] 24.9 µM | [18] 16.3 µM | [10] 16.6 µM | [11] 20.7 µM | [12] 17 µM | [13] 17.5 µM | [14] 17.5 µM | [15] 6.03 µM
6.44 µM: [7]

CC(N/N=C(\S)N1CCCC1)c1cccnn1 (centres undefined)
active: [1] 0.452 µM | [3] 0.713 µM | [4] 0.376 µM | [17] 0.789 µM | [6] 0.335 µM | [8] 0.426 µM | [10] 0.342 µM | [11] 0.451 µM | [12] 0.906 µM | [13] 0.778 µM | [14] 0.513 µM | [15] 0.741 µM
0.443 µM: [7]
inactive: [2] 4.91 µM | [18] 1.13 µM
